Test results published in US12521387B2, “Prophylactic or therapeutic drug for neurodegenerative diseases” (Medilabo RFP, Inc., priority 2019, dated 2026).
“Also recorded” adds a separate entry of the source. Where two headings read alike, the source gives them in different places.

Experiments:
APPOSK mice [1] = assay: Morris water maze behavioral test (spatial reference memory, cognitive function) in Alzheimer's disease model mice; format: in vivo, mouse; conditions: for Cognitive function (Morris water maze): transnasal
Text: Eleven-month-old male APPOSK mice (Tomiyama et al. J Neurosci. 2010; 30: 4845-56) were provided. The body weight of each of the APPOSK mice was about 30 g. Sixty APPOSK mice were divided into five groups A to E each including 12 mice. Separately, 12 wild-type mice (non-Tg littermate) of the same month old were provided. The APPOSK mice were amyloid precursor protein (APP) transgenic mice (Alzheimer's disease models), and had accumulation of amyloid-β (Aβ) protein.
For oral administration, an oral sound for rodents was used; for transnasal administration, pipetman (white tip) was used; and for subcutaneous administration, an injection syringe was used. All of these administrations were carried out under non-anesthesia.
The behavioral test was carrying out by determining the spatial reference memory of each of the mice using a Morris water maze in accordance with the method described in Umeda et al. Brain 2016; 139: 1568-86.
Thirteen-month-age (13 mo) individuals of the APPOSK mice shown in Test Example 1 were used.

APPOSK mice [2] = assay: Liver enzymes AST (GOT) and ALT (GPT) in serum (hepatic dysfunction); format: in vivo, mouse; conditions: for AST level (in words): transnasal
Text: Blood was collected from each of the mice after the completion of the behavioral test, and then serum was separated from the blood to prepare a serum sample.

Aβ oligomers = target: T1, Aβ oligomers (Homo sapiens, UniProt P05067, DEL693-693); format: in vivo, mouse; conditions: APPOSK mice, transnasal, every day for 1 month
T1 construct: had accumulation of amyloid-β (Aβ) protein; from tissue; host or cells: brain (hippocampus) of APPOSK transgenic mice
Text: (§1) Each of Aβ oligomers (Aβ oligomers have been believed to cause the phosphorylation of tau and the decrease in synaptophysin), synaptophysin (a marker protein for a synapse) and phosphorylated tau was stained by an immunohistochemical staining method in accordance with the procedure described in Umeda et al. Brain 2016; 139: 1568-86. For the staining of the Aβ oligomers, 11A1 antibody (Immuno-Biological Laboratories Co, Ltd.) was used; for the staining of synaptophysin, SVP-38 antibody (Sigma) was used; and for the staining of phosphorylated tau, mouse monoclonal PHF-1 antibody (an anti-p-Ser396/404-tau antibody, provided by Peter Davies, Ph. d., Albert Einstein College of Medicine). After the staining, each of the Aβ oligomers, synaptophysin and phosphorylated tau was quantified using NIH image-J.

[3] = test system: Tauopathy model mice (Tau784); assay: Morris water maze behavioral test (cognitive function) in tauopathy model mice; format: in vivo, mouse; conditions: Tau784 mice 14-15 mo, transnasal, every day for 1 month
Text: Tauopathy model mice (Umeda T et al., Am. J. Pathol. 183, 211-225, 2013) were provided, 14- to 15-month-old individuals of the model mice were used as subjects of administration.

Aβ42 = target: T2, Aβ42 (Homo sapiens, UniProt P05067); assay: Suppression of the toxicity of Aβ42; conditions: confirmed by the present inventors
T2 construct: suppress the toxicity of Aβ42

[4] = test system: causative protein for a neurodegenerative disease; assay: Suppression of the aggregation of a causative protein for a neurodegenerative disease; conditions: confirmed by the present inventors
[5] = test system: patients having mild to moderate Alzheimer's disease; conditions: 119 patients, 52 weeks; 500 mg, increased by 500 mg every 13 weeks to 1000 mg twice per day; cited from earlier work
[6] = test system: mitogen (division promoting factor)-activated protein (MAP) kinase; conditions: differentiated or undifferentiated human neuroblast SH-SY5Y; cited from earlier work
synaptophysin = assay: Immunohistochemical staining and quantification of synaptophysin in hippocampus (SVP-38 antibody); format: in vivo, mouse; conditions: APPOSK mice; rifampicin 0.05 mg/day transnasal, every day for 1 month; listed as Reference Working Example 3
Text: as §1

phosphorylated tau = assay: Immunohistochemical staining and quantification of phosphorylated tau in hippocampus (PHF-1 antibody); format: in vivo, mouse; conditions: APPOSK mice; rifampicin 0.05 mg/day transnasal, every day for 1 month; listed as Reference Working Example 3
Text: as §1

[7] = test system: α-synuclein transgenic (αSyn-Tg) mice each having an A53T mutation; assay: Morris water maze behavioral test (cognitive function) in synucleinopathy model mice; format: in vivo, mouse; conditions: αSyn-Tg 6 mo mice (DLB model); rifampicin 0.1 mg/day transnasal, every day for 1 month; listed as Reference Working Example 5
Method: As synucleinopathy models, α-synuclein transgenic (αSyn-Tg) mice each having an A53T mutation were purchased from Jackson Laboratories. […] Therefore, in this Test Example, αSyn-Tg 6 mo mice and αSyn-Tg 9 mo mice were used as the subjects of administration.
The motor function and the cognitive function of each of the model mice were confirmed by a motor function test and a cognitive function test as mentioned below. The motor function test was carried out using a rotarod. Each of the mice was placed on a rotor which could rotate at a speed of 5 rpm (5 rotations per minute), was then subjected to such a training that the mouse was allowed to walk on the rotor for 3 minutes, and was then placed on a rotor of which the speed of rotation could increase from 4 rpm to 40 rpm over 4 minutes, and the time (seconds) until the mouse fell off the rotor was measured (when the mouse was turned once while holding on to the rotor, it was deemed that the mouse fell off). The measurement was carried out twice per day, and an average value of the measurement values was determined. The cognitive function test was carried out in accordance with the method described in Umeda et al. Brain 2016; 139: 1568-86 by measuring the spatial reference memory of the mice using a Morris water maze (the cognitive function test in the below-mentioned examples was carried out in the same manner as in this Test Example). […]

Aβ = Aβ (Homo sapiens, UniProt P05067); assay: In vitro formation of oligomers of Aβ
tau = assay: In vitro formation of oligomers of tau
α-synuclein = α-synuclein (Homo sapiens, UniProt P37840); assay: In vitro formation of oligomers of α-synuclein
[8] = test system: AD model mouse in which Aβ is accumulated; assay: Oral administration to AD model mouse; format: in vivo; conditions: orally administered
[9] = test system: FTD model mouse in which tau is accumulated; assay: Oral administration to FTD model mouse; format: in vivo; conditions: orally administered
[10] = APPOSK mice, serum, rifampicin 0.05 mg/day transnasal, every day for 1 month, Mean ± SEM, n = 11

SMILES: Oc1ccc(/C=C/c2cc(O)cc(O)c2)cc1 [resveratrol, 3,5,4′-trihydroxy-trans-stilbene]
- Cognitive function (Morris water maze) (APPOSK mice [1]; APPOSK mice 13 mo, resveratrol 0.02 mg/day, every day for 1 month (Test Example 6)): the cognitive function-improving effect was observed, although the effect was exerted slowly
- Cognitive function (Morris water maze) (APPOSK mice [1]; APPOSK mice 13 mo, resveratrol 0.1 mg/day, every day for 1 month (Test Example 6)): the improvement of cognitive function was observed to a level close to that observed in the wild-type mice
- Cognitive function (Morris water maze) (APPOSK mice [1]; APPOSK mice, resveratrol 0.02 mg/day alone, every day for 1 month (Test Example 3), listed as Reference Example 10): the cognitive function improving tendency was observed; also recorded: a slow cognitive function-improving effect on a neurodegenerative disease was observed
- AST level (APPOSK mice [2]; APPOSK mice (not shown), resveratrol 0.1 mg administered alone): about 86 IU/L
- AST level / liver protection activity (in words) (APPOSK mice [2]; APPOSK mice (not shown), resveratrol 0.1 mg alone, compared with Reference Example 9 (CMC)): the AST level was decreased and a positive liver protection activity was confirmed
- AST level (in words) (APPOSK mice [2]; APPOSK mice, resveratrol 0.02 mg/day alone, every day for 1 month, compared with Reference Example 9 (CMC)): AST was not reduced
- Removal of accumulated Aβ oligomers (immunostaining) (Aβ oligomers; resveratrol 0.02 mg/day alone, listed as Reference Example 10): the effect to remove the accumulated Aβ oligomers was observed, but the level of the effect was smaller than that in Example 1; also recorded: the accumulated Aβ oligomers removing effect was confirmed; also recorded: the significant removal of the accumulated oligomers was observed
- Cognitive function (Morris water maze) ([3]; resveratrol 0.02 mg/day alone, listed as Reference Example 15): the cognitive function improving effect was developed slowly; also recorded: a slow cognitive function-improving effect on a neurodegenerative disease was observed
- Effect to suppress the toxicity of Aβ42 (Aβ42): significantly weaker compared with rifampicin
- Effect to suppress the aggregation of a causative protein for a neurodegenerative disease [4]: weak
- Effectiveness on Alzheimer's disease compared with placebo [5]: the effectiveness of the administration of resveratrol could not been confirmed
- Phosphorylation of MAP kinase [6]: induces the phosphorylation of mitogen (division promoting factor)-activated protein (MAP) kinase

SMILES: CO[C@H]1/C=C/O[C@@]2(C)Oc3c(C)c(O)c4c(O)c(c(/C=N/N5CCN(C)CC5)c(O)c4c3C2=O)NC(=O)/C(C)=C\C=C\[C@H](C)[C@H](O)[C@@H](C)[C@@H](O)[C@@H](C)[C@H](OC(C)=O)[C@@H]1C [rifampicin, 3-(4-methylpiperazinyliminomethyl)rifamycin SV]
- Cognitive function (Morris water maze) (APPOSK mice [1]; APPOSK mice, rifampicin 0.02 mg/day alone, every day for 1 month): the cognitive function improving tendency was observed
- Improvement of memory impairment (Morris water maze) (APPOSK mice [1]; APPOSK mice, rifampicin 0.05 mg/day transnasal, every day for 1 month, listed as Reference Working Example 3): the improvement effect was at the same level as that in the wild-type mice; also recorded: the improvement effect was higher than that in the case of oral administration
- ALT (APPOSK mice [2]; [10]): 40 ± 10 IU/L
- AST (APPOSK mice [2]; [10]): 165 ± 32 IU/L
- AST level (in words) (APPOSK mice [2]; APPOSK mice, rifampicin 0.02 mg/day alone, every day for 1 month, listed as Comparative Example 1): the increase in AST level, which indicated the occurrence of adverse side effects, was observed; also recorded: significantly reduced compared with the case of oral administration
- Removal of accumulated Aβ oligomers (immunostaining) (Aβ oligomers; rifampicin 0.02 mg/day alone): the effect to remove the accumulated Aβ oligomers was observed, but the level of the effect was smaller than that in Example 1
- Synaptophysin recovery in the hippocampus (immunostaining) (synaptophysin): the decreased synaptophysin was recovered; also recorded: the same level as that in the wild-type mice; also recorded: the effect was higher than that in the oral administration
- Phosphorylated tau reduction in the hippocampus (immunostaining) (phosphorylated tau): the amount of phosphorylated tau accumulated in the brain was decreased and high
- Cognitive function / memory impairment (Morris water maze) [7]: the improvement of memory impairment was observed from day 1 after the administration; also recorded: the cognitive function was recovered to the same level as that in normal Non-Tg mice
- Cognitive function (Morris water maze) ([3]; rifampicin 0.02 mg/day alone): the cognitive function improving effect was developed slowly
- Inhibition of in vitro formation of oligomers of Aβ (Aβ): can inhibit the in vitro formation of oligomers
- Inhibition of in vitro formation of oligomers of tau (tau): can inhibit the in vitro formation of oligomers
- Inhibition of in vitro formation of oligomers of α-synuclein (α-synuclein): can inhibit the in vitro formation of oligomers
- Cognitive function [8]: can recover the cognitive function of the mouse
- Cognitive function [9]: can recover the cognitive function of the mouse
- Effect to suppress the toxicity of Aβ42 (Aβ42): can completely suppress the toxicity of Aβ42
